Legend:
recombinant PfArk1 = recombinant PfArk1 (Plasmodium falciparum, UniProt C6KSQ1); test: KinaseSeeker three-hybrid split-luciferase competitive binding assay, PfArk1
Description: Supplementary Figure S3: (A) Single-point activity profile of selected inhibitors at 1 µM against recombinant PfArk-1 and PfArk-3 proteins, utilising a three-hybrid split-luciferase competitive binding assay (KinaseSeeker™).

[1] = system: hepatocellular carcinoma (HepG2) cells; test: Cytotoxicity counter-screening (MTT), HepG2; conditions: read-out: HepG2 CC50; 48 h, MTT
Description: HepG2 and CHO cells were maintained at 37 °C, under a humidified atmosphere of 5% CO2, in DMEM high glucose media (Gibco) supplemented with 10% heat-inactivated FBS and 1% (v/v) Penicillin-Streptomycin antibiotics. […] The supernatant was discarded, and the cell pellet was resuspended in 1 mL DMEM media for cell counting by Trypan Blue. To determine the toxicity, cells were resuspended and seeded at a concentration of 1x10^4 cells/well in a 96-well plate and incubated for 24 h^[9,10]. Cells were treated in duplicate with a 10-fold serial dilution starting at 100 ug/mL of inhibitor in new media. After 48 h incubation, the viable cells were measured using the MTT tetrazolium reduction assay, where sterile 25 µL of a 5 mg/mL MTT was added to each well and incubated for 4 h before the […] formazan crystals were dissolved with 100 µL DMSO (Merck) per well. The absorbance, a measure of intracellular reduction of MTT, was measured at 540 nm (Multiskan GO). Emetine (50 µM) was included as a positive drug control, and the background was subtracted from all data before being normalised to the untreated^[9,10].

recombinant PfNek1 = test: KinaseSeeker single-point assay, PfNek1; assay type: binding, Plasmodium falciparum; conditions: single point 1 µM
[2] = system: intracellular hemozoin formation in P. falciparum; test: Cellular heme fractionation assay; assay type: cell-based, Plasmodium falciparum; conditions: intracellular fractions
Description: The assay set-up followed that described in^[30,32] optimised to a multi-well colourimetric assay for determining heme species in P. falciparum. Briefly, P. falciparum ring-staged parasites were incubated at 2xIC50 value of the test inhibitor for 24 hours. Thereafter, the incubated parasites (trophozoites) were harvested and isolated through various steps of a cellular fractionation process. The cellular fractionations allow for direct quantification of the three major heme species in the trophozoites, namely hemoglobin, free heme, and hemozoin. These heme species can be determined spectroscopically using the aqueous pyridine-ferrochrome method. This method is based on the principle that aqueous pyridine forms a low-spin complex with heme but not hemozoin, and since the absorbance obeys Beer’s law, it allows for the quantification of heme concentration in solution. The various heme fractions were recovered and measured as follows, after the P. falciparum trophozoite cells were harvested following exposure to probe inhibitors:
Water (100 µL) was added to lyse the cells, and the suspension was sonicated for 5 min. This was followed by the addition of 50 µL 0.2M HEPES buffer pH 7.5, and then centrifugation at 3600 rpm for 20 min. The resulting supernatant (containing hemoglobin) was then transferred into an adjacent set of wells on the same plate. To which 50 µL of each of 4% SDS, 0.3 M NaCl and 25% pyridine were added, respectively. Thereafter, 200 µL of the resulting solution ([…]) was transferred to a set of wells on a separate 96-well plate for UV-vis analysis^[32,33].
The pellet from the centrifugation step described above consists of heme and hemozoin. […] Then 50 µL each of HEPES 0.2 M pH 7.5, 0.3 M NaCl, and 25% pyridine were added, respectively. The mixture was centrifugated at 3600 rpm and the supernatant (250 µL) was transferred to adjacent wells on a separate 96-well plate. Thereafter, 150 µL of water was added and 200 µL of the mixture transferred to a set of wells on a separate plate for UV-vis analysis^[32,33].
To the remaining pellet, 50 µL each of water and 0.3 M NaOH were added, and the mixture was sonicated for 15 min. After 30 min of incubation at room temperature, 50 µL each of HEPES 0.2 M pH 7.5, 0.3 M HCl, and 25% pyridine were added, respectively. To the resulting mixture (250 µL), 150 µL of water was then added, and 200 µL of this was transferred to a set of wells on a separate 96-well plate for UV-vis analysis^[32,33].
Cell counts for the assay were performed using the flow cytometry method described in^[33]. Cell counting determines the number of trophozoites per sample and, therefore, allows for the quantification of the amount of heme found in each individual cell.

[3] = system: asexual intra-erythrocytic parasites; test: Fixed-ratio isobologram analysis; conditions: additivity/indifference 0.8–1.4, antagonism >1.4
Description: Isobolograms were generated by plotting paired FIC values linearly, utilizing the average of three biological replicates, each performed in technical duplicates. The paired FIC values for each drug combination were analyzed, and the mean FIC values (ΣFIC) were calculated to delineate synergism (<0.8), additivity/indifference (0.8–1.4), or antagonism (>1.4).

Sequence of recombinant PfArk1 (C6KSQ1 entry or part of it): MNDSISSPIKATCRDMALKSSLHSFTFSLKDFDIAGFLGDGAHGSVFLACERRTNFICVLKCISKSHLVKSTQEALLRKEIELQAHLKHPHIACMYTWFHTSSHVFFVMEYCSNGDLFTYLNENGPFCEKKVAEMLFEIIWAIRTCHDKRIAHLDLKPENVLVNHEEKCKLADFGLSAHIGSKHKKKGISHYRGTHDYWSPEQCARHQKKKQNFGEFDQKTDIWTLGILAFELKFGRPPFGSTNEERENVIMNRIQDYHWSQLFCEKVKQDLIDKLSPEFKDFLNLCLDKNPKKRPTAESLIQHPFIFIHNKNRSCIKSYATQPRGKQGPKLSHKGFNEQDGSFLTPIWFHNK

| Structure (SMILES) | inhibition of PfArk1 (recombinant PfArk1; single point 1 µM) | CC50 [1] | IC50 (recombinant PfArk1) | effect on PfNek1 (recombinant PfNek1) | free heme level [2] | hemozoin level [2] | ΣFIC50 in combination with CQ [3] | ΣFIC50 in combination with ML10 [3] |
| --- | --- | --- | --- | --- | --- | --- | --- | --- |
| O=C(Nc1c[nH]nc1-c1nc2ccc(CN3CCOCC3)cc2[nH]1)NC1CC1 [AT83, AT9283] | 30% |  |  |  |  |  |  |  |
| CCN(CCO)CCCOc1ccc2c(Nc3cc(CC(=O)Nc4cccc(F)c4)n[nH]3)ncnc2c1 [AZD-1152, AZD-1152-HQPA] |  | 25.9 µM |  |  |  |  |  |  |
| COc1cc(N2CCC(N3CCN(C)CC3)CC2)ccc1Nc1ncc(Cl)c(Nc2ccccc2S(=O)(=O)C(C)C)n1 [TAE684, NVP-TAE684] |  |  | 0.146 ± 0.02 µM | 40% | significant increase in free heme | decrease in hemozoin formation | 1.3 | 1.3 |
| COc1cc2c(Nc3ccc(NC(=O)c4ccccc4)cc3)ncnc2cc1OCCCN1CCOCC1 [ZM-39, ZM-447439] |  | 26.5 µM |  |  | significant increase in free heme | decrease in hemozoin formation | 1.4 |  |
